# pIC50: −log10 of the molar value.
# Target: SHP2 (Homo sapiens (Human), UniProt Q06124)
# Test: SHP2 allosteric inhibition assay (DiFMUP prompt fluorescence)
# Type: biochemical
# Conditions: 0.2 nM SHP2 activated with 0.5 μM Activating Peptide 1 or 2; substrate DiFMUP; Table 2, class symbols
# Excerpt: Without wishing to be bound by theory, SHP2 is allosterically activated through binding of bis-tyrosyl-phosphorylated peptides to its Src Homology 2 (SH2) domains. The latter activation step leads to the release of the auto-inhibitory interface of SHP2, which in turn renders the SHP2 protein tyrosine phosphatase (PTP) active and available for substrate recognition and reaction catalysis. The catalytic activity of SHP2 was monitored using the surrogate substrate DiFMUP in a prompt fluorescence assay format.
# The phosphatase reactions were performed at room temperature in 96-well black polystyrene plate, flat bottom, non-binding surface (Corning, Cat #3650) using a final reaction volume of 100 μL and the following assay buffer conditions: 50 mM HEPES, pH 7.2, 100 mM NaCl, 0.5 mM EDTA, 0.05% P-20, 1 mM DTT.
# The inhibition of SHP2 by compounds of the invention (concentrations varying from 0.00005-10 μM) was monitored using an assay in which 0.2 nM of SHP2 was incubated with 0.5 μM of Activating Peptide 1 (sequence: H2N-LN(pY)IDLDLV(dPEG8)LST(pY)ASINFQK-amide) or Activating Peptide 2 (sequence: H2N-LN(pY)AQLWHA(dPEG8)LTI(pY)ATIRRF-amide). After 30-60-minutes incubation at 25° C., the surrogate substrate DiFMUP (Invitrogen, Cat #D6567) was added to the reaction and activity was determined by a kinetic read using a microplate reader (Envision, Perkin-Elmer or Spectramax M5, Molecular Devices). The excitation and emission wavelengths were 340 nm and 450 nm, respectively. Initial rates were determined from a linear fit of the data, and the inhibitor dose response curves were analyzed using normalized IC50 regression curve fitting with control based normalization.
row,pIC50,Structure (SMILES)
1,6.30 to 7.30,"COc1cccc(-c2cnc(N3CCC4(CC3)CO[C@@H](C)[C@H]4N)n3ccnc23)c1Cl [Compound 57, (3S,4S)-8-[8-(2-chloro-3-methoxyphenyl)imidazo[1,2-c]pyrimidin-5-yl]-3-methyl-2-oxa-8-azaspiro[4.5]decan-4-amine]"
2,< 6.30,"C[C@@H]1OCC2(CCN(c3ncc(-c4ccnc(N)c4)c4nccn34)CC2)[C@@H]1N [Compound 58, (3S,4S)-8-[8-(2-aminopyridin-4-yl)imidazo[1,2-c]pyrimidin-5-yl]-3-methyl-2-oxa-8-azaspiro[4.5]decan-4-amine]"
3,< 6.30,"C[C@@H]1OCC2(CCN(c3ncc(-c4ccnc5[nH]ccc45)c4nccn34)CC2)[C@@H]1N [Compound 59, (3S,4S)-3-methyl-8-(8-{1H-pyrrolo[2,3-b]pyridin-4-yl}imidazo[1,2-c]pyrimidin-5-yl)-2-oxa-8-azaspiro[4.5]decan-4-amine]"
4,< 6.30,"C[C@@H]1OCC2(CCN(c3ncc(-c4ccnc(N)c4Cl)c4nccn34)CC2)[C@@H]1N [Compound 60, (3S,4S)-8-[8-(2-amino-3-chloropyridin-4-yl)imidazo[1,2-c]pyrimidin-5-yl]-3-methyl-2-oxa-8-azaspiro[4.5]decan-4-amine]"
5,≥ 7.30,"Cc1nc(N2CCC3(CC2)CO[C@@H](C)[C@H]3N)n2cnnc2c1Sc1ccnc(N)c1Cl [Compound 61, (3S,4S)-8-{8-[(2-amino-3-chloropyridin-4-yl)sulfanyl]-7-methyl-[1,2,4]triazolo[4,3-c]pyrimidin-5-yl}-3-methyl-2-oxa-8-azaspiro[4.5]decan-4-amine]"
6,≥ 7.30,"Cc1nc(N2CCC3(CC2)CC(N2CC(C#N)C2)C[C@H]3N)n2ccnc2c1-c1cccc(Cl)c1Cl (stereo partly drawn) [Compound 62, 1-[(4R)-4-amino-8-[8-(2,3-dichlorophenyl)-7-methylimidazo[1,2-c]pyrimidin-5-yl]-8-azaspiro[4.5]decan-2-yl]azetidine-3-carbonitrile]"
7,≥ 7.30,"CNC(=O)O[C@H]1C[C@@H](N)C2(CCN(c3nc(C)c(-c4cccc(Cl)c4Cl)c4nccn34)CC2)C1 [Compound 63, (2R,4R)-4-amino-8-[8-(2,3-dichlorophenyl)-7-methylimidazo[1,2-c]pyrimidin-5-yl]-8-azaspiro[4.5]decan-2-yl N-methylcarbamate]"
8,≥ 7.30,"COc1cccc(-c2c(C)nc(N3CCC4(CC3)C[C@@H](OC3COC3)C[C@H]4N)n3ccnc23)c1Cl [Compound 64, (2R,4R)-8-[8-(2-chloro-3-methoxy-phenyl)-7-methyl-imidazo[1,2-c]pyrimidin-5-yl]-2-(oxetan-3-yloxy)-8-azaspiro[4.5]decan-4-amine]"
9,< 6.30,"NC(=O)CNc1ncc(Sc2ccnc(N)c2Cl)c2nccn12 [Compound 66, 2-({8-[(2-amino-3-chloropyridin-4-yl)sulfanyl]imidazo[1,2-c]pyrimidin-5-yl}amino)acetamide]"
10,< 6.30,Nc1nccc(Sc2cnc(N3CCC[C@H]3CO)n3ccnc23)c1Cl [Compound 67]
11,< 6.30,Nc1nccc(Sc2cnc(N3CCOCC3)n3ccnc23)c1Cl [Compound 68]
12,< 6.30,Nc1nccc(Sc2cnc(N3CCC[C@@H]3CO)n3ccnc23)c1Cl [Compound 72]
13,< 6.30,Nc1nccc(Sc2cnc(NCCO)n3ccnc23)c1Cl [Compound 73]
14,< 6.30,C[C@H](O)CNc1ncc(Sc2ccnc(N)c2Cl)c2nccn12 [Compound 74]
15,< 6.30,Nc1nccc(Sc2cnc(N3CC(O)C3)n3ccnc23)c1Cl [Compound 75]
16,< 6.30,Nc1nccc(Sc2cnc(N3CC[C@H](O)C3)n3ccnc23)c1Cl [Compound 76]
17,< 6.30,Nc1nccc(Sc2cnc(N3CC[C@@H](O)C3)n3ccnc23)c1Cl [Compound 77]
18,< 6.30,Nc1nccc(Sc2cnc(N3CCC(c4ncc[nH]4)CC3)n3ccnc23)c1Cl [Compound 78]
19,< 6.30,CC1(O)CCN(c2ncc(Sc3ccnc(N)c3Cl)c3nccn23)CC1 [Compound 79]
20,< 6.30,Nc1nccc(Sc2cnc(N[C@H]3CC[C@@H](O)C3)n3ccnc23)c1Cl [Compound 80]
21,< 6.30,"Nc1nccc(Sc2cnc(O[C@H]3CC[C@@H](N)C3)n3ccnc23)c1Cl [Compound 81, 4-[(5-{[(1S,3R)-3-aminocyclopentyl]oxy}imidazo[1,2-c]pyrimidin-8-yl)sulfanyl]-3-chloropyridin-2-amine]"

row,Structure (SMILES),pIC50
1,"C[C@@H]1OCC2(CCN(c3cnc(Sc4ccnc(N)c4Cl)c4nccn34)CC2)[C@@H]1N [Compound 65, (3S,4S)-8-{8-[(2-amino-3-chloropyridin-4-yl)sulfanyl]imidazo[1,2-a]pyrazin-5-yl}-3-methyl-2-oxa-8-azaspiro[4.5]decan-4-amine]",< 6.30
2,"C[C@@H]1OCC2(CCN(c3nc4[nH]nc(-c5cccc(Cl)c5Cl)c4c4nccn34)CC2)[C@@H]1N [Compound 83, (3S,4S)-8-[12-(2,3-dichlorophenyl)-3,6,8,10,11-pentaazatricyclo[7.3.0.0^2,6]dodeca-1(12),2,4,7,9-pentaen-7-yl]-3-methyl-2-oxa-8-azaspiro[4.5]decan-4-amine]",≥ 7.30
